Converted amounts (≈) assume the structure as drawn. The source made the active and inactive calls. No cut-off for these calls is given here.
Key:
[1] = Solubility of the compound in phosphate buffer saline at pH 9.0 after 20 mins by HPLC analysis; assay type: physicochemical
[2] = Prodrug activation in pig liver mitochondria assessed as formation of oseltamivir carboxylate per mg protein at 500 uM after 30 mins by HPLC analysis; set-up: species or system Sus scrofa; conditions: 0.5 h
[3] = Solubility of the compound in phosphate buffer saline at pH 2.0 after 20 mins by HPLC analysis; assay type: physicochemical
albumin = albumin (Homo sapiens, UniProt P02768); assay: Binding affinity to albumin (unknown origin) at 10 to 50 uM after 10 mins by HPLC analysis; assay type: ADME; conditions: read-out: PPB (converted)
albumin, sequence (P02768 whole entry): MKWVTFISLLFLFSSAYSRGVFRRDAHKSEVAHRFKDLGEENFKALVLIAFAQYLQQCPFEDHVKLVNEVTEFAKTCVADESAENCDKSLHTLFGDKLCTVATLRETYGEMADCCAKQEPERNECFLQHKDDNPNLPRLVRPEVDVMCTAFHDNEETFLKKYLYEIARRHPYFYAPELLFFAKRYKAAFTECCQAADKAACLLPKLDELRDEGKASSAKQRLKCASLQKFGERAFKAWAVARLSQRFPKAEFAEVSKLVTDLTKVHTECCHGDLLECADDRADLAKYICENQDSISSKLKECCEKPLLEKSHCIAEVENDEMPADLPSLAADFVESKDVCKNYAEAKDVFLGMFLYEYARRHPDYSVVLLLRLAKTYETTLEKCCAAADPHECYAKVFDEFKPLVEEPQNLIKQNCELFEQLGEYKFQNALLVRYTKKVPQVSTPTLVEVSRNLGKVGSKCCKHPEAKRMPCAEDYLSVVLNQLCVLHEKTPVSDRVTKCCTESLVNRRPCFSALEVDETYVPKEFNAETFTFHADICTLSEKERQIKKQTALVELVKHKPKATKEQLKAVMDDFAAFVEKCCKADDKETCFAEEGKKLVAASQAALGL

in vivo [4] = conditions: Sprague-Dawley, rat, po, 50 mg/kg
Liver = assay: Prodrug activation in 9000g human liver supernatant assessed as formation of oseltamivir carboxylate per mg protein at 500 uM after 30 mins by HPLC analysis; assay type: tissue-based; conditions: 0.5 h
[5] = Prodrug activation in pig liver microsomes assessed as formation of oseltamivir carboxylate per mg protein at 500 uM after 30 mins by HPLC analysis; set-up: species or system Sus scrofa, Microsome; conditions: 0.5 h
[6] = AUC in Sprague-Dawley rat at 50 mg/kg, iv by LC-MS/MS analysis; assay type: ADME, organism-based; set-up: dose 50 mg/kg, route intravenous; conditions: plasma
[7] = Tmax in Sprague-Dawley rat at 50 mg/kg, po by LC-MS/MS analysis; assay type: ADME, organism-based; set-up: dose 50 mg/kg, route oral; conditions: in vivo
[8] = Chemical stability of the compound in phosphate buffer saline at pH 2.0 to 9.0; assay type: physicochemical
in vivo [9] = conditions: Sprague-Dawley, rat, po, 50 mg/kg; remark: listed apart in the source
Description: Half life in Sprague-Dawley rat at 50 mg/kg, po by LC-MS/MS analysis

[10] = Cmax in Sprague-Dawley rat at 50 mg/kg, po by LC-MS/MS analysis; assay type: ADME, organism-based; set-up: dose 50 mg/kg, route oral; conditions: in vivo
[11] = Mean residence time in Sprague-Dawley rat at 50 mg/kg, po by LC-MS/MS analysis; assay type: ADME, organism-based; set-up: dose 50 mg/kg, route oral; conditions: in vivo
[12] = Prodrug activation in human liver mitochondria assessed as formation of oseltamivir carboxylate per mg protein at 500 uM after 30 mins by HPLC analysis; conditions: 0.5 h
[13] = Prodrug activation in pig liver cytosol assessed as formation of oseltamivir carboxylate per mg protein at 500 uM after 30 mins by HPLC analysis; assay type: tissue-based, Sus scrofa; conditions: 0.5 h
[14] = Solubility of the compound in phosphate buffer saline at pH 7.4 after 20 mins by HPLC analysis; assay type: physicochemical
[15] = Prodrug activation in 9000g pig liver supernatant assessed as formation of oseltamivir carboxylate per mg protein at 500 uM after 30 mins by HPLC analysis; assay type: tissue-based, Sus scrofa; conditions: 0.5 h
[16] = Prodrug activation in pig liver assessed as carboxylesterase-mediated oseltamivir carboxylate formation per mg protein at 500 uM after 30 mins by HPLC analysis; assay type: tissue-based, Sus scrofa; conditions: 0.5 h
Liver microsome = assay: Prodrug activation in human liver microsomes assessed as formation of oseltamivir carboxylate per mg protein at 500 uM after 30 mins by HPLC analysis; conditions: 0.5 h
MDCK = assay: Cytotoxicity against MDCK cells assessed as cell viability after 72 hrs; assay type: cell-based, Canis lupus familiaris; conditions: dog
[17] = Prodrug activation in human liver cytosol assessed as formation of oseltamivir carboxylate per mg protein at 500 uM after 30 mins by HPLC analysis; assay type: tissue-based; conditions: 0.5 h
in vivo [18] = conditions: Sprague-Dawley, rat, po, 10 mg/kg
Influenza A virus [19] = assay type: functional, organism-based; conditions: A/Jena/5258/2009(H1N1), MDCK
Influenza A virus [20] = assay: microbe, parasite or virus in culture; conditions: A/Jena/5258/2009(H1N1), MDCK, 48 h
[21] = Half life in Sprague-Dawley rat plasma; assay type: ADME, cell-free
Influenza A virus [22] = assay: Antiviral activity against Influenza A virus H3N2; assay type: functional, organism-based
Influenza A virus [23] = assay: Antiviral activity against Influenza A virus H1N1; assay type: functional, organism-based
Neuraminidase [24] = molecular target: T1, Neuraminidase (Influenza A virus, UniProt B4URF0); set-up: species or system A/HH/1580/09(H1N1)
T1 sequence (B4URF0 whole entry): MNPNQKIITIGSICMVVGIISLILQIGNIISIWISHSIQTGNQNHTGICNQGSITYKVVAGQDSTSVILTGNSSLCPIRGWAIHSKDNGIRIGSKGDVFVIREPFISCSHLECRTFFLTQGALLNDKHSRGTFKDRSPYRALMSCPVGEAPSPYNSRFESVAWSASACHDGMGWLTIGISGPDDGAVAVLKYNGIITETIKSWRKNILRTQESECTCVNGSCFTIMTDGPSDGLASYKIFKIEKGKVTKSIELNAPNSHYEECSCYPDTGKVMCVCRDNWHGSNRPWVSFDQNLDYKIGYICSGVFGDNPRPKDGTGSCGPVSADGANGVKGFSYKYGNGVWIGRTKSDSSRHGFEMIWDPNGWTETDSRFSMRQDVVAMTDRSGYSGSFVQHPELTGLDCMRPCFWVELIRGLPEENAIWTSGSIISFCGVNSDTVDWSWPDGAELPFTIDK

Neuraminidase [25] = molecular target: T1, Neuraminidase; set-up: species or system A/Jena/5258/2009(H1N1)
Neuraminidase [26] = molecular target: T1, Neuraminidase; set-up: species or system A/Berlin/10/04(H3N2)
Neuraminidase [27] = molecular target: T1, Neuraminidase; set-up: species or system A/Jena/5555/09(H1N1)
Neuraminidase [28] = molecular target: T1, Neuraminidase; set-up: species or system A/Hong Kong/68(H3N2)
Neuraminidase [29] = molecular target: T1, Neuraminidase; set-up: species or system A/Sachsen/6/02(H3N2)
Rattus norvegicus = assay: Bioavailability in Sprague-Dawley rat at 10 mg/kg, iv by LC-MS/MS analysis; assay type: ADME, organism-based; conditions: in vivo
[30] = Plasma protein binding in human at 10 to 50 uM after 10 mins by HPLC analysis; assay type: ADME, cell-free; conditions: read-out: PPB (converted)
in vivo [31] = conditions: Sprague-Dawley, rat, iv, 10 mg/kg
Description: Half life in Sprague-Dawley rat at 10 mg/kg, iv by LC-MS/MS analysis

[32] = Mean residence time in Sprague-Dawley rat at 10 mg/kg, iv by LC-MS/MS analysis; assay type: ADME, organism-based; set-up: dose 10 mg/kg, route intravenous; conditions: in vivo
Neuraminidase [33] = molecular target: T1, Neuraminidase; set-up: species or system A/Rheinland-Pfalz/3911/03(H3N2)
[34] = AUC in Sprague-Dawley rat at 10 mg/kg, iv by LC-MS/MS analysis; assay type: ADME, organism-based; set-up: dose 10 mg/kg, route intravenous; conditions: plasma
[35] = Oral bioavailability in fasted mouse at 10 mg/kg by LC-MS/MS analysis; assay type: ADME, organism-based; conditions: in vivo
[36] = Oral bioavailability in fed mouse at 10 mg/kg by LC-MS/MS analysis; assay type: ADME, organism-based; conditions: in vivo

| Structure (SMILES) | solubility at 20 min [1] [mM] | Drug metabolism [2] [nmol/min/mg] | solubility at 20 min [3] [mM] | fraction unbound at 10 min, up to 50 µM (albumin) | bioavailability (in vivo [4]) [%] | Drug metabolism (Liver) [nmol/min/mg] | AUC [6] [ng·h/mL] | Tmax [7] [h] | Stability [8] | half-life (in vivo [9]) [h] | Cmax [10] [ng/mL] | MRT [11] [h] | Drug metabolism [12] [nmol/min/mg] | solubility at 20 min [14] [mM] | Drug metabolism (Liver microsome) [nmol/min/mg] | IC (MDCK) | EC50 (Influenza A virus [20]) [nM] | IC50 (Influenza A virus [22]) [nM] | IC50 (Influenza A virus [23]) [nM] | further results |
| --- | --- | --- | --- | --- | --- | --- | --- | --- | --- | --- | --- | --- | --- | --- | --- | --- | --- | --- | --- | --- |
| Br.CCOC(=O)C1=C[C@@H](OC(CC)CC)[C@H](NC(C)=O)[C@@H](NC(C)=N)C1 | > 50 | 0.15 | > 50 | 0.652 | 0.8 | 0.2 | 283 | 0.517 | Stable | 0.7 | 200 | 1.62 | 0.56 | > 50 | 0.64 | – | – | – | – | Drug metabolism [5]: 0.3 nmol/min/mg; Drug metabolism [13]: 0.66 nmol/min; Drug metabolism [15]: 0.42 nmol/min/mg; Drug metabolism [16]: 0.83 nmol/min/mg |
| CC(=O)N[C@H]1[C@H]([C@H](O)[C@H](O)CO)OC(C(=O)O)=C[C@@H]1N=C(N)N [ZANAMIVIR] | – | – | – | – | – | – | – | – | – | – | – | – | – | – | – | <= 200 ug ml-1 | – | – | – | – |
| CCOC(=O)C1=C[C@@H](OC(CC)CC)[C@H](NC(C)=O)[C@@H](NC(=N)N)C1 | > 50 | 0.21 | > 50 | 0.699 | 1.3 | 0.32 | 217 | 1 | Stable | 1.45 | 100 | 2.62 | 0.79 | > 50 | 1.06 | – | – | – | – | Drug metabolism [5]: 0.22 nmol/min/mg; Drug metabolism [17]: 0.5 nmol/min/mg; bioavailability (in vivo [18]): 2.1%; Drug metabolism [15]: 0.22 nmol/min/mg; Drug metabolism [16]: 1.35 nmol/min/mg |
| CCOC(=O)C1=C[C@@H](OC(CC)CC)[C@H](NC(C)=O)[C@@H](N/C(C)=N/O)C1 | 23 (≈ 8.5 mg/mL) | 0.51 | > 50 | 0.733 | 31.4 | 0.56 | 13300 | 1.37 | Stable | 1.85 | 3100 | 3.43 | 0.29 | 23 (≈ 8.5 mg/mL) | 2.3 | – | – | – | – | Drug metabolism [13]: 0.4 nmol/min |
| CC(=O)N[C@H]1[C@H]([C@H](O)[C@H](O)CO)OC(C(=O)O)=C[C@@H]1NC(=N)N [ZANAMIVIR] | – | – | – | – | – | – | – | – | – | – | – | – | – | – | – | – | 6560 | – | – | Activity (Influenza A virus [19]): Active |
| CCOC(=O)C1=C[C@@H](OC(CC)CC)[C@H](NC(C)=O)[C@@H](N)C1 [OSELTAMIVIR] | – | – | – | – | – | – | – | – | – | – | – | – | – | – | – | – | – | – | – | bioavailability (in vivo [18]): 36%; half-life [21]: 0.733 h |
| CCC(CC)O[C@@H]1C=C(C(=O)O)C[C@H](N)[C@H]1NC(C)=O [OSELTAMIVIR CARBOXYLATE] | – | – | – | – | – | – | – | – | – | – | – | – | – | – | – | <= 200 ug ml-1 | 5210 | 0.24 | 0.12 | Activity (Influenza A virus [19]): Active |
| CCC(CC)O[C@@H]1C=C(C(=O)O)C[C@H](NC(C)=N)[C@H]1NC(C)=O | > 50 | – | > 50 | 0.978 | 3.9 | – | 1880 | 0.733 | Stable | 1.13 | 600 | 2.1 | – | > 50 | – | 0.53 mM | 1900 | 1.82 | 0.4 | IC50 (Neuraminidase [24]): 0.3 nM; IC50 (Neuraminidase [25]): 0.45 nM; IC50 (Neuraminidase [26]): 1.3 nM; IC50 (Neuraminidase [27]): 0.44 nM; IC50 (Neuraminidase [28]): 1.87 nM; IC50 (Neuraminidase [29]): 2.3 nM; F (Rattus norvegicus): 100%; fraction unbound at 10 min, up to 50 µM [30]: 0.963; half-life (in vivo [31]): 0.567 h; MRT [32]: 0.533 h; IC50 (Neuraminidase [33]): 1.79 nM |
| CCOC(=O)C1=C[C@@H](OC(CC)CC)[C@H](NC(C)=O)[C@@H](NC(N)=NO)C1 | > 50 | – | > 50 | 0.625 | 1.5 | 0.76 | 317 | 1.52 | Stable | 1.15 | 100 | 2.8 | 1.74 | > 50 | 1.76 | – | – | – | – | Drug metabolism [17]: 0.28 nmol/min/mg |
| CCC(CC)O[C@@H]1C=C(C(=O)O)C[C@H](NC(=N)N)[C@H]1NC(C)=O | – | – | – | 0.996 | 1.9 | – | 450 | 1.72 | Stable | 1.22 | 300 | 2.2 | – | – | – | 0.55 mM | 3120 | 0.8 | 0.22 | AUC [34]: 4800 ng·h/mL; bioavailability [35]: 48%; F (Rattus norvegicus): 100%; fraction unbound at 10 min, up to 50 µM [30]: 0.914; half-life (in vivo [31]): 1.57 h; bioavailability [36]: 23%; MRT [32]: 0.983 h |

From ChEMBL document CHEMBL3120142 (J Med Chem, 2014)
